IC50 data for eleven compounds are collected here from US20240409585A1, “MACROCYCLIC IMMUNOMODULATORS” (priority 2021, published 2024).

Bridge positions count the residues as written; N and C are the ends. Square brackets hold non-standard residues; d marks the D form. Peptide text beside a SMILES is read from it. * marks the point of attachment. ξ: configuration not given here. Phe(4-(4-pyridyl)) = N[C@@H](Cc1ccc(-c2ccncc2)cc1)C(=O)O; Phe(3-CONH2) = NC(=O)c1cccc(C[C@H](N)C(=O)O)c1; Phe(4-COOH) = N[C@@H](Cc1ccc(C(=O)O)cc1)C(=O)O; Bip = N[C@@H](Cc1ccc(-c2ccccc2)cc1)C(=O)O; Phe(3-Cl) = N[C@@H](Cc1cccc(Cl)c1)C(=O)O; Phe(3-Me) = Cc1cccc(C[C@H](N)C(=O)O)c1; Val(3-OH) = CC(C)(O)[C@H](N)C(=O)O; 4Pal = N[C@@H](Cc1ccncc1)C(=O)O; Cha = N[C@@H](CC1CCCCC1)C(=O)O; Ile(3ξ) = CCC(C)[C@H](N)C(=O)O; Thr(3ξ) = CC(O)[C@H](N)C(=O)O; Ala(CN) = N#CC[C@H](N)C(=O)O; ξIle = CC[C@H](C)C(N)C(=O)O; dNle = CCCC[C@@H](N)C(=O)O; Carboxymethyl = O=C(O)C*; NMeA = CN[C@@H](C)C(=O)O; Dab = NCC[C@H](N)C(=O)O; Dap = NC[C@H](N)C(=O)O; ξC = NC(CS)C(=O)O

The target of the test is T1, PE-labeled human PD-L1-Ig binding to Jurkat cell line over-expressing human PD-1 (Jurkat-PD-1) (Homo sapiens, UniProt Q15116).
T1 construct: expressed in transfected cells; host or cells: Jurkat
T1 sequence (Q15116 25-288): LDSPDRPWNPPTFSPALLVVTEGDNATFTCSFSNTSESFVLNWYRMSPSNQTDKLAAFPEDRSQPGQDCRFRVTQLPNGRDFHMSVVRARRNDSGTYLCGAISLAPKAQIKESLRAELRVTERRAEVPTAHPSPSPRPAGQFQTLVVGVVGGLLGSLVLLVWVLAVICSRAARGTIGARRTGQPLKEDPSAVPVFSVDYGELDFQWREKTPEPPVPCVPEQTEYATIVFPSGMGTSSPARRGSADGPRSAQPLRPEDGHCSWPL
Nature of the test: Jurkat-PD-1 Cell Binding High-Content Screening Assay (CBA): Method 1. The settings on record: Jurkat-hPD-1 cells, PE-labeled PD-L1-Ig 20 nM final; read-out: Jurkat HPDL1 PD1 IC50 (uM) (Method 1).
One may read the IC50 as the concentration at which inhibition is half-maximal. As for `CC(C)C[C@@H]1NC(=O)[C@H](CCCCN)NC(=O)[C@@H](CC(C)C)NC(=O)[C@H](C)N(C)C(=O)[C@H](Cc2cnc[nH]2)NC(=O)[C@H](Cc2ccc(-c3ccccc3)cc2)NC(=O)[C@H](C(C)C)NC(=O)[C@H](Cc2c[nH]c3ccccc23)NC(=O)[C@H](CC(=O)O)NC(=O)[C@H](Cc2ccc(O)cc2)NC(=O)[C@H](CC(N)=O)NC(=O)CSC[C@@H](C(=O)NCC(N)=O)NC(=O)[C@H]([C@@H](C)O)NC(=O)[C@H](C(C)C)NC1=O` [Compound 1484] ({CH2CO}-NYDWV[Bip]H[NMeA][dL]KLVTCG-NH2; thioether N-14), the IC50 turned out to be 0.07 µM.
For `CC[C@H](C)C1NC(=O)[C@H](Cc2ccc(-c3ccccc3)cc2)NC(=O)[C@H](C(C)C)NC(=O)[C@H](Cc2c[nH]c3ccccc23)NC(=O)[C@H](CC(=O)O)NC(=O)[C@H](Cc2ccc(C(=O)O)cc2)NC(=O)[C@H](CC(N)=O)NC(=O)CSC[C@@H](C(=O)N[C@@H](C)C(N)=O)NC(=O)[C@H]([C@@H](C)O)NC(=O)[C@H](C(C)C)NC(=O)[C@H](CC(C)C)NC(=O)[C@H](CCN)NC(=O)[C@@H](CC(C)C)NC(=O)[C@H](C)N(C)C1=O` (stereo partly drawn) [Compound 1395] ({CH2CO}-N[Phe(4-COOH)]DWV[Bip][ξIle][NMeA][dL][Dab]LVTCA-NH2; thioether N-14), the half-inhibitory concentration (IC50) came to 0.02 µM.
`CC(C)C[C@@H]1NC(=O)[C@H](CCCNC(=N)N)NC(=O)[C@@H](CC(C)C)NC(=O)[C@H](C)N(C)C(=O)[C@H](CCCNC(=N)N)NC(=O)[C@H](Cc2ccc(-c3ccncc3)cc2)NC(=O)[C@H](C(C)C)NC(=O)[C@H](Cc2c[nH]c3ccccc23)NC(=O)[C@H](CC(=O)O)NC(=O)[C@H](Cc2ccc(O)cc2)NC(=O)[C@H](Cc2ccccc2)NC(=O)CSC[C@@H](C(=O)N[C@@H](C)C(N)=O)NC(=O)[C@H]([C@@H](C)O)NC(=O)[C@H](C(C)C)NC1=O` [Compound 1078] ({CH2CO}-FYDWV[Phe(4-(4-pyridyl))]R[NMeA][dL]RLVTCA-NH2; thioether N-14): the IC50 came out at 0.48 µM.
Take `Cc1cccc(C[C@@H]2NC(=O)[C@H](CC(=O)O)NC(=O)[C@H](Cc3ccc(OCC(=O)O)cc3)NC(=O)[C@H](CCN)NC(=O)CSC[C@@H](C(=O)N[C@@H](CO)C(N)=O)NC(=O)[C@H](CO)NC(=O)[C@H](C(C)(C)O)NC(=O)[C@H](CC3CCCCC3)NC(=O)[C@H](CCN)NC(=O)[C@@H](CC(C)C)NC(=O)[C@H](C)N(C)C(=O)[C@H](Cc3ccc(C(=O)O)cc3)NC(=O)[C@H](Cc3ccc(-c4ccccc4)cc3)NC(=O)[C@H](Cc3cccc(C(N)=O)c3)NC2=O)c1` [Compound 2178] ({CH2CO}-[Dab]Y(Carboxymethyl)D[Phe(3-Me)][Phe(3-CONH2)][Bip][Phe(4-COOH)][NMeA][dL][Dab][Cha][Val(3-OH)]SCS-NH2; thioether N-14): the IC50 stood at 0.04 µM.
Take `CC(C)C[C@@H]1NC(=O)[C@H](CCCNC(=N)N)NC(=O)[C@@H](CC(C)C)NC(=O)[C@H](C)N(C)C(=O)[C@H](C(C)C)NC(=O)[C@H](Cc2ccc(-c3ccccc3)cc2)NC(=O)[C@H](C(C)C)NC(=O)[C@H](Cc2cccc(Cl)c2)NC(=O)[C@H](CC(=O)O)NC(=O)[C@H](Cc2ccc(O)cc2)NC(=O)[C@H](CC(N)=O)NC(=O)CSC[C@@H](C(=O)N[C@@H](C)C(N)=O)NC(=O)[C@H]([C@@H](C)O)NC(=O)[C@H](C(C)C)NC1=O` [Compound 1274] ({CH2CO}-NYD[Phe(3-Cl)]V[Bip]V[NMeA][dL]RLVTCA-NH2; thioether N-14): the IC50 came out at 0.03 µM.
Take `CC(C)C[C@@H]1NC(=O)[C@H](Cc2c[nH]c3ccccc23)NC(=O)[C@H](CC(=O)O)NC(=O)[C@H](Cc2ccc(O)cc2)NC(=O)[C@H](CC(N)=O)NC(=O)CSC[C@@H](C(=O)NCC(N)=O)NC(=O)[C@H](CO)NC(=O)[C@H](C(C)C)NC(=O)[C@H](CC(C)C)NC(=O)[C@H](CC(N)=O)NC(=O)[C@H](CC(N)=O)NC(=O)[C@H](C)N(C)C(=O)[C@H](C(C)C)NC(=O)[C@H](Cc2ccc(-c3ccccc3)cc2)NC1=O` [Compound 1822] ({CH2CO}-NYDWL[Bip]V[NMeA]NNLVSCG-NH2; thioether N-14): the IC50 came to 0.58 µM.
For `CCCC[C@H]1NC(=O)[C@H](C)N(C)C(=O)[C@H](CCCNC(=N)N)NC(=O)[C@H](Cc2ccc(-c3ccccc3)cc2)NC(=O)[C@H](C(C)C)NC(=O)[C@H](Cc2c[nH]c3ccccc23)NC(=O)[C@H](CC(=O)O)NC(=O)[C@H](Cc2ccc(O)cc2)NC(=O)[C@H](Cc2ccccc2)NC(=O)CSC[C@@H](C(=O)N[C@@H](C)C(N)=O)NC(=O)[C@H]([C@@H](C)O)NC(=O)[C@H](C(C)C)NC(=O)[C@H](CC(C)C)NC(=O)[C@H](CCCNC(=N)N)NC1=O` [Compound 1063] ({CH2CO}-FYDWV[Bip]R[NMeA][dNle]RLVTCA-NH2; thioether N-14), the IC50 was found to be 0.06 µM.
Then `CC[C@H](C)[C@@H]1NC(=O)[C@H](Cc2ccc(-c3ccccc3)cc2)NC(=O)[C@H](C(C)C)NC(=O)[C@H](Cc2c[nH]c3ccccc23)NC(=O)[C@H](CC(=O)O)NC(=O)[C@H](Cc2ccc(OCC(=O)O)cc2)NC(=O)[C@H](Cc2ccncc2)NC(=O)CSC[C@@H](C(=O)N[C@@H](C)C(N)=O)NC(=O)[C@H]([C@@H](C)O)NC(=O)[C@H](C(C)C)NC(=O)[C@H](CC(C)C)NC(=O)[C@H](CCN)NC(=O)[C@@H](CC(C)C)NC(=O)[C@H](C)N(C)C1=O` [Compound 1413] ({CH2CO}-[4Pal]Y(Carboxymethyl)DWV[Bip]I[NMeA][dL][Dab]LVTCA-NH2; thioether N-14), with 0.03 µM; and `CCC(C)[C@@H]1NC(=O)[C@H](Cc2ccc(-c3ccccc3)cc2)NC(=O)[C@H](CC(C)C)NC(=O)[C@H](Cc2c[nH]c3ccccc23)NC(=O)[C@H](CC(=O)O)NC(=O)[C@H](Cc2ccc(C(=O)O)cc2)NC(=O)[C@H](Cc2ccc(OCC(=O)O)cc2)NC(=O)CSC[C@@H](C(=O)N[C@@H](CO)C(N)=O)NC(=O)[C@H](CCC(N)=O)NC(=O)[C@H](C(C)C)NC(=O)[C@H](CC2CCCCC2)NC(=O)[C@H](CCN)NC(=O)[C@@H](CC(C)C)NC(=O)[C@H](C)N(C)C1=O` (stereo partly drawn) [Compound 1931] ({CH2CO}-Y(Carboxymethyl)[Phe(4-COOH)]DWL[Bip][Ile(3ξ)][NMeA][dL][Dab][Cha]VQCS-NH2; thioether N-14), with 0.02 µM.
Consider `CC[C@H](C)[C@@H]1NC(=O)[C@H](Cc2ccc(-c3ccccc3)cc2)NC(=O)[C@H](C(C)C)NC(=O)[C@H](Cc2c[nH]c3ccccc23)NC(=O)[C@H](CC(=O)O)NC(=O)[C@H](Cc2ccc(O)cc2)NC(=O)[C@H](CN)NC(=O)CSC[C@@H](C(=O)N[C@@H](C)C(N)=O)NC(=O)[C@H]([C@@H](C)O)NC(=O)[C@H](C(C)C)NC(=O)[C@H](CC(C)C)NC(=O)[C@H](CCN)NC(=O)[C@@H](CC(C)C)NC(=O)[C@H](C)N(C)C1=O` [Compound 1414] ({CH2CO}-[Dap]YDWV[Bip]I[NMeA][dL][Dab]LVTCA-NH2; thioether N-14), for which the IC50 stood at 0.1 µM.
On to `CCC(C)[C@@H]1NC(=O)[C@H](Cc2ccc(-c3ccccc3)cc2)NC(=O)[C@H](C(C)C)NC(=O)[C@H](Cc2c[nH]c3ccccc23)NC(=O)[C@H](CC(=O)O)NC(=O)[C@H](Cc2ccc(O)cc2)NC(=O)[C@H](CC#N)NC(=O)CSCC(C(=O)NCC(=O)O)NC(=O)[C@H](C(C)O)NC(=O)[C@H](C(C)C)NC(=O)[C@H](CC2CCCCC2)NC(=O)[C@H](CCN)NC(=O)[C@@H](CC(C)C)NC(=O)[C@H](C)N(C)C1=O` (stereo partly drawn) [Compound 2218] ({CH2CO}-[Ala(CN)]YDWV[Bip][Ile(3ξ)][NMeA][dL][Dab][Cha]V[Thr(3ξ)][ξC]G-OH; thioether N-14), for which the IC50 came out at 0.01 µM.
